Results from patent US7612096B2, “Methods for treatment, modification and management of radiculopathy using 1-oxo-2-(2,6-dioxopiperidin-3yl)-4-aminoisoindoline” (Celgene Corporation, priority 2004, dated 2009).

Assays:
TNF-α production [1] = experiment: Inhibition of TNF-α production following LPS-stimulation of human PBMC; type: cell-based; settings: for IC50: human PBMC, LPS-stimulated, read-out: IC50 for inhibiting production of TNF-α following LPS-stimulation of PBMC
Text: (§1) Inhibitions of TNF-α production following LPS-stimulation of human PBMC and human whole blood by 3-(4-amino-1-oxo-1,3-dihydro-isoindol-2-yl)-piperidine-2,6-dione, 4-(amino)-2-(2,6-dioxo-(3-piperidyl))-isoindoline-1,3-dione and thalidomide were investigated in vitro.

TNF-α production [2] = experiment: Inhibition of TNF-α production following LPS-stimulation of human whole blood; type: cell-based; settings: LPS-stimulated, read-out: IC50 for inhibiting production of TNF-α following LPS-stimulation of human whole blood
Text: as §1

IL1β production = experiment: LPS-stimulated production of IL1β by PBMC; type: cell-based
IL6 production = experiment: LPS-stimulated production of IL6 by PBMC; type: cell-based
IL10 production = experiment: LPS-stimulated production of IL10 by PBMC; type: cell-based
Beagle dogs = experiment: Cardiovascular and respiratory function in anesthetized dogs; type: in vivo, dog; settings: for cardiovascular and respiratory changes compared to the vehicle control group: anesthetized Beagle dogs, 2, 10 and 20 mg/kg, infusion through the jugular vein, all doses; for duration of the arterial blood pressure increase / change in arterial blood pressure / deviations in femoral blood flow, respiratory parameters, and Qtc interval: anesthetized Beagle dogs; for duration of the arterial blood pressure increase / change in arterial blood pressure: low dose; for change in arterial blood pressure: i.v. infusion, statistically significant, not seen at higher doses; for deviations in femoral blood flow, respiratory parameters, and Qtc interval: common to both control and treated groups
Text: The effects of 3-(4-amino-1-oxo-1,3-dihydro-isoindol-2-yl)-piperidine-2,6-dione and 4-(amino)-2-(2,6-dioxo-(3-piperidyl))-isoindoline-1,3-dione on cardiovascular and respiratory function were investigated in anesthetized dogs. Two groups of Beagle dogs (2/sex/group) were used. One group received three doses of vehicle only and the other receives three ascending doses of 3-(4-amino-1-oxo-1,3-dihydro-isoindol-2-yl)-piperidine-2,6-dione or 4-(amino)-2-(2,6-dioxo-(3-piperidyl))-isoindoline-1,3-dione (2, 10, and 20 mg/kg). In all cases, doses of 3-(4-amino-1-oxo-1,3-dihydro-isoindol-2-yl)-piperidine-2,6-dione, 4-(amino)-2-(2,6-dioxo-(3-piperidyl))-isoindoline-1,3-dione or vehicle were successively administered via infusion through the jugular vein separated by intervals of at least 30 minutes.

CRPS patients = experiment: Clinical study in patients with upper extremity CRPS; type: in vivo, human; settings: 10 mg continuous oral daily dose
Protocol: Immunomodulatory compounds such as 4-(amino)-2-(2,6-dioxo(3-piperidyl))-isoindoline-1,3-dione and 3-(4-amino-1-oxo-1,3-dihydro-isoindol-2-yl)-piperidine-2,6-dione are administered in an amount of 0.1 to 25 mg per day to patients with pain syndromes for three to six months. A baseline evaluation is performed for the effect of the drug treatment on pain intensity, impact of pain on activities of daily living, and consumption of other pain medications.
In a specific embodiment, clinical studies are performed in pain patients who have upper extremity CRPS that has not responded to conventional physical therapy and has been present for at least one year. In the early course of their diseases, patients have clear evidence of autonomic dysfunction with formal autonomic testing (Quantitative sudomotor axon reflex test (QSART), resting sweat output, and thermography). […] Responses are assessed using standard pain scales, e.g., Numeric Pain Scale Assessment (VAS) for pain, quality of life using the McGill Index and objective signs in clinical examination such as a visible reduction of swelling, sweating, discolorations in skin color, temperature changes, changes in skin, hair and nail growth, and fine motor movements. […]

## Nc1cccc2c1C(=O)N(C1CCC(=O)NC1=O)C2=O (stereo not drawn) [4-(Amino)-2-(2,6-dioxo(3-piperidyl))-isoindoline-1,3-dione]
TNF-α production [1]
  effect on LPS-stimulated production of TNF-α by PBMC: dose-dependent inhibition
  IC50: ~24 nM
TNF-α production [2]
  IC50: ~25 nM
IL1β production
  effect on LPS-stimulated production of IL1β by PBMC: dose-dependent inhibition
IL6 production
  effect on LPS-stimulated production of IL6 by PBMC: dose-dependent inhibition
IL10 production
  effect on production of the anti-inflammatory cytokine IL10: increased production
Beagle dogs
  cardiovascular and respiratory changes compared to the vehicle control group: minimal
  duration of the arterial blood pressure increase: approximately 15 minutes
  change in arterial blood pressure: small increase
  deviations in femoral blood flow, respiratory parameters, and Qtc interval: not considered treatment-related

## Nc1cccc2c1CN(C1CCC(=O)NC1=O)C2=O (stereo not drawn) [3-(4-amino-1-oxo-1,3-dihydro-isoindol-2-yl)-piperidine-2,6-dione]
TNF-α production [1]
  effect on LPS-stimulated production of TNF-α by PBMC: dose-dependent inhibition
  IC50: ~100 nM
TNF-α production [2]
  IC50: ~480 nM
IL1β production
  effect on LPS-stimulated production of IL1β by PBMC: dose-dependent inhibition
IL6 production
  effect on LPS-stimulated production of IL6 by PBMC: dose-dependent inhibition
IL10 production
  effect on production of the anti-inflammatory cytokine IL10: increased production
Beagle dogs
  cardiovascular and respiratory changes compared to the vehicle control group: minimal
  duration of the arterial blood pressure increase: approximately 15 minutes
  change in arterial blood pressure: small increase
  deviations in femoral blood flow, respiratory parameters, and Qtc interval: not considered treatment-related
CRPS patients
  tolerability: well-tolerated
